Experimental data reported in ChEMBL document CHEMBL1201862, “PubChem BioAssay data set” (2004).
Several values for one entry are separate records, joined by “and”; a condition that tells them apart may be missing. Equal values may be shown once.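 48-hour exposure; five concentrations; linearly interpolated endpoints. GI50 = concentration required for 50% inhibition of growth.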 Activity calls are given as the source filed them. Cut-off read from the data, not from the text of the source: active = GI50 up to about 1.1 µM and inactive = higher.

Assays:
Test in all cases: inhibition of tumour cell growth, NCI panel, 48 h
RXF 393 = tested on: RXF 393
786-0 = tested on: 786-0
OVCAR-4 = tested on: OVCAR-4
KM12 = tested on: KM12
SK-MEL-2 = tested on: SK-MEL-2
OVCAR-3 = tested on: OVCAR-3
HT-29 = tested on: HT-29
OVCAR-8 = tested on: OVCAR-8
RPMI-8226 = tested on: RPMI-8226
UACC-62 = tested on: UACC-62
PC-3 = tested on: PC-3
LOX IMVI = tested on: LOX IMVI
SF-295 = tested on: SF-295
CCRF-CEM = tested on: CCRF-CEM
SK-MEL-5 = tested on: SK-MEL-5
UO-31 = tested on: UO-31
MDA-MB-231 = tested on: MDA-MB-231
TK-10 = tested on: TK-10
SF-268 = tested on: SF-268
HCC 2998 = tested on: HCC 2998

Compound	GI50 (RXF 393)	GI50 (786-0)	GI50 (OVCAR-4)	GI50 (KM12)	GI50 (SK-MEL-2)	GI50 (OVCAR-3)	GI50 (HT-29)	GI50 (OVCAR-8)	GI50 (RPMI-8226)	GI50 (UACC-62)	GI50 (PC-3)	GI50 (LOX IMVI)	GI50 (SF-295)	GI50 (CCRF-CEM)	GI50 (SK-MEL-5)	GI50 (UO-31)	GI50 (MDA-MB-231)	GI50 (TK-10)	GI50 (SF-268)	GI50 (HCC 2998)
CN(C)Cc1cc(C(F)(F)F)ccc1C(O)(c1ccccc1)c1ccccc1	11.8 µM (inactive)	14.2 µM (inactive)	16.4 µM (inactive)	16.9 µM (inactive)	18.3 µM (inactive)	27.8 µM (inactive)	5.05 µM (inactive)	17.9 µM (inactive)	5.51 µM (inactive)	13.2 µM (inactive)	14.1 µM (inactive)	15.8 µM (inactive)	17.9 µM (inactive)	6.92 µM (inactive)	14.1 µM (inactive)	12.1 µM (inactive)	11.9 µM (inactive)	17.2 µM (inactive)	15.3 µM (inactive)	
CN(Cc1cnc2nc(N)nc(N)c2n1)c1ccc(C(=O)NCCS(=O)(=O)O)cc1		> 100 µM (inactive)	> 100 µM (inactive)	> 100 µM (inactive)	> 100 µM (inactive)	> 100 µM (inactive)	> 100 µM (inactive)	> 100 µM (inactive)	> 100 µM (inactive)	> 100 µM (inactive)	> 100 µM (inactive)	> 100 µM (inactive)	> 100 µM (inactive)		> 100 µM (inactive)	> 100 µM (inactive)	> 100 µM (inactive)	> 100 µM (inactive)	> 100 µM (inactive)	> 100 µM (inactive)
C[N+](C)(CCNc1ccc(NCC[N+](C)(C)Cc2ccc([N+](=O)[O-])cc2)c2c1C(=O)c1ccccc1C2=O)Cc1ccc([N+](=O)[O-])cc1		> 100 µM (inactive)	> 100 µM (inactive)	> 100 µM (inactive)	> 100 µM (inactive)	> 100 µM (inactive)	> 100 µM (inactive)	> 100 µM (inactive)		> 100 µM (inactive)	> 100 µM (inactive)	> 100 µM (inactive)	> 100 µM (inactive)	> 100 µM (inactive)	> 100 µM (inactive)	> 100 µM (inactive)	> 100 µM (inactive)	> 100 µM (inactive)	> 100 µM (inactive)	> 100 µM (inactive)
Nc1ccc2ccc(N3CCNCC3)nc2n1		61.7 µM (inactive)	57.7 µM (inactive)	48.2 µM (inactive)	35.1 µM (inactive)	17.9 µM (inactive)	33.7 µM (inactive)	> 100 µM (inactive)	84.3 µM (inactive)	59.2 µM (inactive)	44.7 µM (inactive)	> 100 µM (inactive)	39.9 µM (inactive)	31.6 µM (inactive)		50.4 µM (inactive)	37.3 µM (inactive)	> 100 µM (inactive)	44.7 µM (inactive)	44.2 µM (inactive)
CC(C)(Cl)C(Br)CC/C(=C/CBr)CBr.CC(C)(Cl)C(Br)CC/C(=C\CBr)CBr (configuration not stated)	4.22 µM (inactive)	1.59 µM (inactive)	2.25 µM (inactive)	2.36 µM (inactive)	4.98 µM (inactive)	2.45 µM (inactive)	1.95 µM (inactive)	3.01 µM (inactive)	1.11 µM (active)	5.01 µM (inactive)	7.45 µM (inactive)		3.71 µM (inactive)	0.959 µM (active)	2.87 µM (inactive)	1.62 µM (inactive)	1.89 µM (inactive)	4.1 µM (inactive)	2.14 µM (inactive)	5.82 µM (inactive)
COc1ccc(-c2nc(SCC(=O)N/N=C/c3ccc(N(C)C)cc3)[nH]c2-c2ccc(OC)cc2)cc1	33.4 µM (inactive)	57.7 µM (inactive)	> 100 µM (inactive)	32.6 µM (inactive)	86.1 µM (inactive)	20.1 µM (inactive)	34.6 µM (inactive)	84.7 µM (inactive)		46.7 µM (inactive)	44.8 µM (inactive)	92.9 µM (inactive)	37 µM (inactive)	8.57 µM (inactive)	26.8 µM (inactive)	82.8 µM (inactive)	> 100 µM (inactive)	> 100 µM (inactive)	> 100 µM (inactive)	75.9 µM (inactive)
CC(=O)c1csc2c1C(=O)c1scc(C(C)=O)c1C2=O	2.13 µM (inactive)	2.05 µM (inactive)	0.587 µM (active)	1.73 µM (inactive)	1.89 µM (inactive)	0.231 µM (active)	2.28 µM (inactive)	1.54 µM (inactive)	0.944 µM (active)	1.98 µM (inactive)	2.84 µM (inactive)	1.41 µM (inactive)	1.66 µM (inactive)	0.5 µM (active)	1.44 µM (inactive)	2 µM (inactive)	0.348 µM (active)	2.54 µM (inactive)	1.47 µM (inactive)	
CC12CCC(CC1=O)C2(C)CCC(N)=O (configuration not stated)	> 100 µM (inactive)	> 100 µM (inactive)	> 100 µM (inactive)	> 100 µM (inactive)	> 100 µM (inactive)	> 100 µM (inactive)	> 100 µM (inactive)	> 100 µM (inactive)	> 100 µM (inactive)	> 100 µM (inactive)	> 100 µM (inactive)		> 100 µM (inactive)	> 100 µM (inactive)	> 100 µM (inactive)	> 100 µM (inactive)	> 100 µM (inactive)	> 100 µM (inactive)	> 100 µM (inactive)	> 100 µM (inactive)
Cc1cc2[nH]c3c(C#N)c4c(c(=O)n3c2cc1C)CCCC4		> 100 µM (inactive)	> 100 µM (inactive)	> 100 µM (inactive)	> 100 µM (inactive)	> 100 µM (inactive)	> 100 µM (inactive)	> 100 µM (inactive)		> 100 µM (inactive)	> 100 µM (inactive)	> 100 µM (inactive)	16 µM (inactive)	> 100 µM (inactive)	32.6 µM (inactive)	> 100 µM (inactive)	> 100 µM (inactive)	> 100 µM (inactive)	79.3 µM (inactive)	> 100 µM (inactive)
CC(C)(CCCCC(C)(C)[N+](C)(C)C)[N+](C)(C)C		> 100 µM (inactive)	> 100 µM (inactive)				> 100 µM (inactive)	> 100 µM (inactive)	> 100 µM (inactive)		> 100 µM (inactive)			> 100 µM (inactive)	> 100 µM (inactive)	> 100 µM (inactive)	> 100 µM (inactive)	> 100 µM (inactive)	> 100 µM (inactive)	> 100 µM (inactive)
NNC(=O)CC(=O)Nc1ccccc1Cl	> 100 µM (inactive)	> 100 µM (inactive)	> 100 µM (inactive)	> 100 µM (inactive)	> 100 µM (inactive)	> 100 µM (inactive)	> 100 µM (inactive)	> 100 µM (inactive)	> 100 µM (inactive)	> 100 µM (inactive)	> 100 µM (inactive)	> 100 µM (inactive)	> 100 µM (inactive)	> 100 µM (inactive)	> 100 µM (inactive)	> 100 µM (inactive)	> 100 µM (inactive)	> 100 µM (inactive)	> 100 µM (inactive)	
O=C1CSC(c2cccc(Cl)c2)N1c1c(O)c(Cl)cc(Br)c1Cl (configuration not stated)	16.7 µM (inactive)	25.5 µM (inactive)	14.9 µM (inactive)	34 µM (inactive)	14.9 µM (inactive)	16.9 µM (inactive)	> 100 µM (inactive)		15.9 µM (inactive)	22.6 µM (inactive)	36.1 µM (inactive)	16.3 µM (inactive)	> 100 µM (inactive)	19.8 µM (inactive)	27.3 µM (inactive)	15.6 µM (inactive)	14 µM (inactive)	83.4 µM (inactive)	57.8 µM (inactive)	
C(CCCCc1nnc(N2CCCCC2)o1)CCCc1nnc(N2CCCCC2)o1	> 100 µM (inactive)	> 100 µM (inactive)	> 100 µM (inactive)	> 100 µM (inactive)	> 100 µM (inactive)	> 100 µM (inactive)	> 100 µM (inactive)	> 100 µM (inactive)			> 100 µM (inactive)	> 100 µM (inactive)	> 100 µM (inactive)	> 100 µM (inactive)	> 100 µM (inactive)	> 100 µM (inactive)	> 100 µM (inactive)	> 100 µM (inactive)	> 100 µM (inactive)	> 100 µM (inactive)
CCOC(=O)CC[C@H](NC(=O)c1ccc(CNc2nc3cc(C(F)(F)F)ccc3nc2C(=O)OCC)cc1)C(=O)OCC	27.7 µM (inactive)	7.19 µM (inactive)		52.2 µM (inactive)	> 48.2 µM (inactive)	> 38.8 µM (inactive)	> 100 µM (inactive)	9.42 µM (inactive)	5.58 µM (inactive)	16.1 µM (inactive)	30.3 µM (inactive)	> 100 µM (inactive)	8.34 µM (inactive)	> 100 µM (inactive)	27.9 µM (inactive)	25.2 µM (inactive)	13.3 µM (inactive)	15.4 µM (inactive)	12.4 µM (inactive)	
COc1ccc(-c2[nH]c(=O)n(C3OC(CO)C(O)C(O)C3O)c(=O)c2C#N)cc1 (configuration not stated)	> 100 µM (inactive)	> 100 µM (inactive)	> 100 µM (inactive)	> 100 µM (inactive)	> 100 µM (inactive)	> 100 µM (inactive)	> 100 µM (inactive)	> 100 µM (inactive)	> 100 µM (inactive)	> 100 µM (inactive)	> 100 µM (inactive)		> 100 µM (inactive)	> 100 µM (inactive)	> 100 µM (inactive)	> 100 µM (inactive)	> 100 µM (inactive) and 81.5 µM (inactive)	> 100 µM (inactive)	> 100 µM (inactive)	> 100 µM (inactive)
